Experimental data from PMC2796389 (PLoS ONE, 2010).

Experiments:
[1] = tested on: Cyphoma digestive gland cytosolic GST; assay: Inhibition of CDNB-conjugating GST activity in digestive gland cytosol; assay type: biochemical, Cyphoma gibbosum; settings: prostaglandins screened at 600 µM, 5% (v/v) DMSO, Figure 3
[2] = tested on: rat alpha-class GST A4-4; parameters: method as in PMID 12230403; settings: conversion to glutathione conjugate; read-out: Km for PGA2; cited from earlier work
[3] = tested on: human mu-class GST M2-2; parameters: method as in PMID 12230403; settings: conversion to glutathione conjugate; read-out: Km for PGA2; cited from earlier work
[4] = tested on: human mu-class GST M1a-a; parameters: method as in PMID 9084911; settings: conversion to glutathione conjugate; read-out: Km for PGA2; cited from earlier work

SMILES: CCCCC[C@@](C)(O)/C=C/[C@H]1C=CC(=O)[C@@H]1C/C=C\CCCC(=O)O [15(R)-15-methyl PGA2]
- inhibition of GST activity in comparison to solvent controls [1]: most potent inhibitors

SMILES: CCCCC[C@H](O)/C=C/[C@H]1C=CC(=O)[C@@H]1C/C=C\CCCC(=O)O [15(S)-PGA2, prostaglandin A2]
- Km [2]: 12 µM
- inhibition of GST activity in comparison to solvent controls ([1]; 600 µM): most potent inhibitors
- inhibition of GST activity in comparison to solvent controls ([1]; listed as PGA2, 600 µM): greatest inhibition
- Km [3]: 7.6 µM
- Km [4]: 26 µM

SMILES: CCCCC[C@H](O)/C=C/[C@H]1[C@H](O)CC(=O)[C@@H]1C/C=C\CCCC(=O)OC [15(S)-PGE2-methyl ester]
- inhibition of GST activity in comparison to solvent controls [1]: little to no inhibitory activity

SMILES: CCCCC[C@H](O)/C=C/[C@@H]1[C@@H](C/C=C\CCCC(=O)OC)[C@@H](O)C[C@H]1O [15(S)-PGF2α-methyl ester]
- inhibition of GST activity in comparison to solvent controls [1]: little to no inhibitory activity
